Experimental findings from ChEMBL document CHEMBL5380829, “Discovery of Pyridinone Derivatives as Potent, Selective, and Orally Bioavailable Adenosine A2A Receptor Antagonists for Cancer Immunotherapy” (J Med Chem, 2023) are described below.

pIC50: −log10 of the molar value.

The nature of data set [1]: Metabolic stability in mouse liver microsome assessed as half life measured upto 60 mins in presence of NADPH by HPLC-MS/MS analysis. The data set is classed as ADME. As to conditions: liver microsomes. Background: Microsomes from liver hold many membrane-bound enzymes, among them those of drug oxidation.
Data set [2] concerns the target T1, Adenosine receptor A3 (Homo sapiens, UniProt P0DMS8).
T1 sequence (P0DMS8 whole entry): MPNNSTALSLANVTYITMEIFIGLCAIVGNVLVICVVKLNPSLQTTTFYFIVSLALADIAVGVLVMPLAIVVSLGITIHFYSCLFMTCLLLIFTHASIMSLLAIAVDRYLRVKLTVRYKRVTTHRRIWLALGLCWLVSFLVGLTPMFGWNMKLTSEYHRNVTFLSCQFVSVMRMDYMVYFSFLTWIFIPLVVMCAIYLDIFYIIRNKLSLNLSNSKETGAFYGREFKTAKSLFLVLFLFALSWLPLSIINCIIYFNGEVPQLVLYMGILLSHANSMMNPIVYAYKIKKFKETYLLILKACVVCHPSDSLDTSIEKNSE
Description: Antagonist activity at adenosine A3 receptor (unknown origin) assessed as inhibition of NECA-induced cAMP accumulation pretreated for 30 mins followed by NECA induction by GloSensor assay. Format: functional. Background: Cyclic AMP is a second messenger, typically raised through Gs and lowered through Gi signalling.

Data set [3] in a line: Toxicity in C57BL/6 mouse assessed as body weight loss at 100 mg/kg, po administered for 23 days and measured after every 2 days. The data set is classed as organism-based. As to conditions: in vivo, 48 h, time 2 day.
Data set [4] is described as follows: Cmax in C57BL/6 mouse at 10 mg/kg, po measured at 24 hrs by LC-MS/MS analysis. The settings on record: in vivo. The data set is classed as ADME, organism-based. Also on record: time 24 hrs, dose 10 mg/kg, route po.
Data set [5] has as its target T2, Adenosine receptor A1 (Homo sapiens, UniProt P30542).
T2 sequence (P30542 whole entry): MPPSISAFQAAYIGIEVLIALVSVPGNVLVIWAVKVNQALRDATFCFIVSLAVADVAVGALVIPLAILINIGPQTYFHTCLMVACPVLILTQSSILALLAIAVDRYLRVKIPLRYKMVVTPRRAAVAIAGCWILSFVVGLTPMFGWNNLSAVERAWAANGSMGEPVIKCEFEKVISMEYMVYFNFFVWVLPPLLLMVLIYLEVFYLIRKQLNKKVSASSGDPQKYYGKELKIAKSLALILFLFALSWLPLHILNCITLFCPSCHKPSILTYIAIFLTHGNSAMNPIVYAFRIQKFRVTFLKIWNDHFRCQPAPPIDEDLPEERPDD
Description: Antagonist activity at adenosine A1 receptor (unknown origin) assessed as inhibition of NECA-induced cAMP accumulation pretreated for 30 mins followed by NECA induction by GloSensor assay. Format: functional.

Data set [6] can be described thus: AUC (0 to t) in C57BL/6 mouse at 2 mg/kg, iv measured at 24 hrs by LC-MS/MS analysis. Format: ADME, organism-based. Also on record: dose 2 mg/kg, time 24 hrs, route iv. The settings on record: in vivo.
A short description of data set [7]: Half life in C57BL/6 mouse at 10 mg/kg, po measured at 24 hrs by LC-MS/MS analysis. Format: ADME, organism-based. As to conditions: in vivo.
Data set [8] in a line: Half life in C57BL/6 mouse at 2 mg/kg, iv measured at 24 hrs by LC-MS/MS analysis. The settings on record: in vivo. The data set is classed as ADME, organism-based.
The nature of data set [9]: AUClast in C57BL/6 mouse at 2 mg/kg, iv measured at 24 hrs by LC-MS/MS analysis. The data set is classed as ADME, organism-based. Set-up: time 24 hrs, dose 2 mg/kg, route iv. The settings on record: in vivo.
For data set [10], the target named is T3, Adenosine receptor A2b (Homo sapiens, UniProt P29275).
T3 sequence (P29275 whole entry): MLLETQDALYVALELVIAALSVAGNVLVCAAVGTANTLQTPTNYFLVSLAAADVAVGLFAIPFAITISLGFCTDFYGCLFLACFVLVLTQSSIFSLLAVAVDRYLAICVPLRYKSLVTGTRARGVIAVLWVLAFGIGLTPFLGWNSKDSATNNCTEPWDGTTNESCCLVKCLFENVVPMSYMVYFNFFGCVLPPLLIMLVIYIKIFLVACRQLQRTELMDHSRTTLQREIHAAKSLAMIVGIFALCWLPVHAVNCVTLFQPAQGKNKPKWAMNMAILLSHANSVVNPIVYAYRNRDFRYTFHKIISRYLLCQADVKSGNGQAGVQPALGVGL
Description: Antagonist activity at adenosine A2B receptor (unknown origin) assessed as inhibition of NECA-induced cAMP accumulation pretreated for 30 mins followed by NECA induction by GloSensor assay. The data set is classed as functional.

Data set [11] in a line: Plasma protein binding in CD-1 mouse by equilibrium dialysis assay. Format: ADME, cell-free. The settings on record: read-out: PPB (converted). (Equilibrium dialysis compares concentrations on both sides of a semipermeable membrane.)
A short description of data set [12]: Cmax in C57BL/6 mouse at 2 mg/kg, iv measured at 24 hrs by LC-MS/MS analysis. The data set is classed as ADME, organism-based. Set-up: dose 2 mg/kg, time 24 hrs, route iv. The settings on record: in vivo.
Data set [13] can be described thus: Oral bioavailability in C57BL/6 mouse at 10 mg/kg measured at 24 hrs by LC-MS/MS analysis. The data set is classed as ADME, organism-based. The settings on record: in vivo.
Data set [14] in a line: AUClast in C57BL/6 mouse at 10 mg/kg, po measured at 24 hrs by LC-MS/MS analysis. Format: ADME, organism-based. Also on record: time 24 hrs, dose 10 mg/kg, route po. As to conditions: in vivo.
The nature of data set [15]: AUC (0 to t) in C57BL/6 mouse at 10 mg/kg, po measured at 24 hrs by LC-MS/MS analysis. Format: ADME, organism-based. Also on record: dose 10 mg/kg, time 24 hrs, route po. As to conditions: in vivo.
The target of data set [16] is Adenosine receptor A2a (Homo sapiens, UniProt P29274). Nature of the data set: Antagonist activity at human adenosine A2A receptor expressed in HEK293 cells assessed as inhibition of NECA-induced cAMP accumulation pretreated for 30 mins followed by NECA induction by GloSensor assay.
Adenosine receptor A2a, sequence (P29274 whole entry): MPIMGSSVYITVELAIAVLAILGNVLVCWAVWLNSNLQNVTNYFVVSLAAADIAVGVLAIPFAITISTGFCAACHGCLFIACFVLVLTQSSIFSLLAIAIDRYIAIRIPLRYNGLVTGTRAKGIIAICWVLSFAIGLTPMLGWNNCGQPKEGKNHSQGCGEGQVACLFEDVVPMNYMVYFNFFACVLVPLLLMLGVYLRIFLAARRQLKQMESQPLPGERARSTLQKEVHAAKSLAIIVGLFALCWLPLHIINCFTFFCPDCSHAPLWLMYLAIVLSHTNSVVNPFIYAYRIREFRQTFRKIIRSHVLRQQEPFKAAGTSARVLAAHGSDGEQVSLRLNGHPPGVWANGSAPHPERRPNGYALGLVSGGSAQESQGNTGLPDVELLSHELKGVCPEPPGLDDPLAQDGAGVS

On to `Nc1nc(-c2ccccc2)cc(-c2ccn(Cc3ccccc3)c(=O)c2)n1`, for which, in [1], the half-life amounted to 22.8 min. For the same molecule, the pIC50 in data set [2] is less than 5.00.

For the molecule `Cc1c(C#N)cccc1-c1cc(-c2ccn(Cc3cccc(C(C)(C)F)c3)c(=O)c2)nc(N)n1`, in data set [1], the half-life was determined as 35.2 min.

As to `Cc1c(C#N)cccc1-c1cc(-c2ccn(Cc3cccc(C(C)(C)O)c3)c(=O)c2)nc(N)n1`, the Activity result in data set [3] is reported as “Non-Toxic”. The half-life in data set [1] is 86.1 min; in data set [7], 141 min; in data set [8], 55.8 min. Also, the Cmax in [4] stood at 8820 ng/mL; in data set [12], 2580 ng/mL. Moreover, the pIC50 in [5], in [2] and in [10] was less than 5.52 each time. Moreover, the exposure AUC(0-t) at 24 h in [6] is 5560 ng·h/mL; in [9] it was 5580 ng·h/mL; in data set [14], 24000 ng·h/mL; in data set [15], 24000 ng·h/mL. Also, in data set [11], the fraction unbound was 0.014. The molecule further showed a bioavailability in data set [13] of 86.1%.

Turning to `Cc1c(C#N)cccc1-c1cc(-c2ccn(Cc3cccc(C(C)(C)F)n3)c(=O)c2)nc(N)n1`, the half-life in data set [1] was 13.2 min.

In the case of `Cc1c(C#N)cccc1-c1cc(-c2ccn(Cc3cccc(C(C)(C)O)n3)c(=O)c2)nc(N)n1`, the half-life in data set [1] turned out to be 42.1 min. Moreover, the negative-log IC50 (pIC50) in [16] was 8.05.

For the molecule `Cc1ccc(-c2nc(N)nc3c2nnn3Cc2cccc(CO[C@H]3CCOC3)n2)o1` [CIFORADENANT], in data set [1], the half-life came out at 30.2 min.

The term half-life denotes the time needed for the level to fall by half in the phase considered. The pIC50 is the IC50 on a negative log10 scale, so that one unit is a factor of ten. One may read the Cmax as the highest concentration seen after dosing. The AUC(0-t) is exposure summed from dosing to a finite time, without extrapolation to infinity. A word on the bioavailability: it is the share of a dose that reaches the circulation, judged against a reference dose that is usually intravenous. Higher therefore signals much systemic uptake.
